Values of other authors, collected in patent US6348583B1, “Poly(ether-thioether), poly(ether-sulfoxide) and poly(ether-sulfone) nucleic acids” (Bio-Rad Laboratories, Inc., priority 1999, dated 2002).
Where two headings read alike, the source gives them in different places.

How the values were obtained:
dA10 = conditions: duplex with dA10
[1] = aqueous buffers

dT10: native DNA dT10, duplex with dA10 (SEQ ID NO:18) (TTTTTTTTTT)
Tm value (dA10): about 24 °C

d(ApG)8: methylphosphonate oligonucleotide analog, SEQ ID NO:22 (DNA GAGAGAGAGAGAGAGA; methylphosphonate backbone, further chemistry not given here)
solubility [1]: less than 0.1 mM

d(CpT)8: methylphosphonate oligonucleotide analog, SEQ ID NO:21 (DNA CTCTCTCTCTCTCTCT; methylphosphonate backbone, further chemistry not given here)
solubility ([1]; result in words): soluble up to millimolar concentrations
